From patent US9067894B1, “Compound, composition, and method of activating GIRK potassium channel and use of same for treating conditions of interest” (Vanderbilt University, priority 2013, dated 2015) come the findings set out here.

The structures appear in SMILES notation.

The inhibition is the change of the read-out against control, counted positive when it falls.

For data set [1], the target named is T1, Histamine H1 (Homo sapiens, UniProt P35367).
T1 construct: Ricerca
Put plainly: Radioligand displacement (Ricerca). In kind it is binding. (In general: In a radioligand displacement assay an active substance lowers the binding of a labelled ligand.)

Data set [2] is described as follows: Plasma protein binding, equilibrium dialysis. It is filed as in vitro ADME, mouse. To be noted: murine plasma. As for the experimental part:
Plasma Protein Binding. […] Briefly plasma (220 μL) was added to the 96-well plate containing test article (5 μL) and mixed thoroughly. Subsequently, 200 μl of the plasma-test article mixture was transferred to the cis chamber (red) of the RED plate, with an accompanying 350 μL of phosphate buffer (25 mM, pH 7.4) in the trans chamber. The RED plate was sealed and incubated 4 h at 37° C. with shaking. At completion, 50 μL aliquots from each chamber were diluted 1:1 (50 μL) with either plasma (cis) or buffer (trans) and transferred to a new 96-well plate, at which time ice-cold acetonitrile (2 volumes) was added to extract the matrices. The plate was centrifuged (3000 rcf, 10 min) and supernatant solutions transferred to a new 96-well plate. The sealed plate was stored at −20° C. until LC/MS/MS analysis.
Liquid Chromatography/Mass Spectrometry Analysis. In vitro experiments. VU0456810 was analyzed on a Thermo Electron TSQ Quantum Ultra triple quad mass spectrometer (San Jose, Calif.) via electrospray ionization (ESI) with two Themo Electron Accella pumps (San Jose, Calif.), and a Leap Technologies CTC PAL autosampler (Carrboro, N.C.). Analytes were separated by gradient elution on a dual column system with two Thermo Hypersil Gold (2.1×30 mm, 1.9 μm) columns (San Jose, Calif.) at 40° C. HPLC mobile phase A was 0.1% formic acid in water and mobile phase B was 0.1% formic acid in acetonitrile. […]

Data set [3] concerns the target T2, Muscarinic M2 (Homo sapiens, UniProt P08172).
T2 construct: Ricerca (contract laboratory that ran the panel)
Description: Radioligand displacement (Ricerca). It is filed as binding.

T1 sequence (P35367 whole entry): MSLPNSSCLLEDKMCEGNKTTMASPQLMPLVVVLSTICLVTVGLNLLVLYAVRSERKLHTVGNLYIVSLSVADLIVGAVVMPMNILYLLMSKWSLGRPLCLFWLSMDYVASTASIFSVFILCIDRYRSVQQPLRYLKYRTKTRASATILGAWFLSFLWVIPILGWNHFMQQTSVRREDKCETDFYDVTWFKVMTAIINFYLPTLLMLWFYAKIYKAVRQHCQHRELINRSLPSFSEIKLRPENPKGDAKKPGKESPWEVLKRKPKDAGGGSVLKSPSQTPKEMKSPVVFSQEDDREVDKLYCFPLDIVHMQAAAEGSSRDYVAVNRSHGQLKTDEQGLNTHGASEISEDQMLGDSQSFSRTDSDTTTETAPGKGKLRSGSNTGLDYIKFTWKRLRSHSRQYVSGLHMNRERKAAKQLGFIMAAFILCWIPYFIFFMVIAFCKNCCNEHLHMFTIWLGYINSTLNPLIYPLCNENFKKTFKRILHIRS
T2 sequence (P08172 whole entry): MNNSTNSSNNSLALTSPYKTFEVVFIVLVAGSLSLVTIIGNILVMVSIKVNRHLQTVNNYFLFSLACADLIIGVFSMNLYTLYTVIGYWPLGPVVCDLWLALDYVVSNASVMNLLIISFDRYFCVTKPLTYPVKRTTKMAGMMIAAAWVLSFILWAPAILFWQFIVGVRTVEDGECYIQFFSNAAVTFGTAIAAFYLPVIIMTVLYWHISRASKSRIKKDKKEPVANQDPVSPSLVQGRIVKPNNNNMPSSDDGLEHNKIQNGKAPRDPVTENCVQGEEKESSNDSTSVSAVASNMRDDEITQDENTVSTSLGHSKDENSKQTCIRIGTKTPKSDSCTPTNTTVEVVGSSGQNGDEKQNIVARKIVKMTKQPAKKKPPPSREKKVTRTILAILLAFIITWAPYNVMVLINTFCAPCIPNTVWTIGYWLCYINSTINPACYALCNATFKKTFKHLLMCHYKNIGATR

On to `Cc1cc(NC(=O)Nc2ccc(F)c(F)c2)n(-c2ccccc2)n1` [VU0456810, 1-(3,4-difluorophenyl)-3-(3-methyl-1-phenyl-1H-pyrazol-5-yl)urea], for which the results for the inhibition at 10 µM in data set [1] and in data set [3] were -7% and -17%, respectively. Besides, in data set [2], the “Plasma Protein Binding” value was 3 % fu.
